Results on two compounds are retold here after patent US7504394B2 (Wyeth, priority 2004, dated 2009).

≈ marks a conversion by molar mass, not a printed value.

The test system of series [1] is uterine response. Conditions: preclinical models of uterine stimulation; cited from earlier work.
For series [2], the system named is ovariectomized rat model of osteopenia. Conditions: cited from earlier work.
The subject of series [3] is MCF-7 cell line (human breast cancer cell line). The following applies: cited from earlier work.
A short description of series [4]: Equilibrium solubility of bazedoxifene ascorbate in 0.0005 M acetic acid at 37° C. The following applies: aqueous buffer, thermodynamic from solid, filtered 0.2 um, HPLC. It is filed as physicochemical. As to the method:
The samples were rotated at 50 rotation/min for 18 hours. All samples were filtered through 0.2 um (Nylon Acrodisc) filter. Samples were analyzed by HPLC.

Turning to `Cc1c(-c2ccc(O)cc2)n(Cc2ccc(OCCN3CCCCCC3)cc2)c2ccc(O)cc12` [bazedoxifene acetate], the “stimulation of uterine response” value in series [1] is recorded as “little or no stimulation of uterine response”. In series [2], the “effect on bone loss” value is on record as “estrogen agonist-like effect in preventing bone loss” and the effect on cholesterol entry is “reducing cholesterol”. Further, the estrogen agonist/antagonist behaviour entry in series [3] is on record as “behaves as an estrogen antagonist”.

As a reminder, the thermodynamic solubility is the concentration in solution at equilibrium with solid. In turn, `Cc1c(-c2ccc(O)cc2)n(Cc2ccc(OCCN3CCCCCC3)cc2)c2ccc(O)cc12` [bazedoxifene ascorbate, 1-[4-(2-azepan-1-yl-ethoxy)-benzyl]-2-(4-hydroxy-phenyl)-3-methyl-1H-indol-5-ol] returned a solubility (thermodynamic) at 18 h in series [4] of 1660 µg/mL (≈ 3.53 mM).
